The results in this text go back to a melting point compilation (Tetko et al.; mined from patent text by program, amines drawn as free bases though some values may be those of a salt).

For orientation: melting point means the temperature, or range, at which the solid turns liquid. Take `CCOC(=O)c1ncc2[nH]c3ccc(Br)cc3c2n1`: the melting point was 286 to 290 °C. Next, `CCN1CCC(=O)N(c2cc(Cl)ccc2C)C1=S`: 142 to 145 °C; `Brc1ccc(-c2cn([C@H]3CN4CCC3CC4)nn2)o1`: 144 °C. The compound `O=C(CCNC(=O)n1cc(F)c(=O)[nH]c1=O)N1CCOCC1` yielded a melting point of 178 to 180 °C. The value for `CCCNc1nc2ccccn2c(=O)c1-c1ccc(NC2CCN(C(=O)OC(C)(C)C)C2)cc1` (configuration not stated) was 187 to 190 °C; that for `COc1ccc(OC2CCN(C)C2)c(C(N)=O)c1` (configuration not stated) was 85 to 87 °C; that for `COc1nc(-c2ccccc2)c2c(n1)N(c1ccccc1)C(=O)NC2` was 220 to 222 °C. The value for `O=C(NC(CC1CCCC1)C(=O)NC1CCCN(C(=O)c2ccccc2)CC1=O)c1ccco1` (configuration not stated) was 97 to 100 °C; that for `O=C(Nc1nnco1)C1c2ccccc2Oc2ccccc21` was 239 to 240 °C; that for `CC(=O)N(C(C)=O)c1ncc(C#Cc2cnn3c(C(F)(F)F)cc(-c4ccc(C(F)(F)F)cc4)nc23)cn1` was 253 to 254 °C. Consider `O=C1NC(=O)c2c1c(-c1ccccc1)cc1c2c2cc(O)ccc2n1CCn1ccnc1`, for which the melting point is above 345 °C. The value for `Cc1nc2c3c(ccn2c1C)C(=O)[C@](O)(Cc1ccccc1)[C@@H](c1ccccc1)N3` was 248 to 251 °C; that for `O=C(Nc1ccc(OC(F)(F)F)cc1)NC1CCN(C(=O)C2CC2)CC1` was 195 to 196 °C. In the case of `NNC(=O)Cc1cc(C(=O)c2ccc(I)c(N)c2)sc1-c1ccccc1`, the melting point fell in the range of 159 to 165 °C.

In turn, `O=C(Nc1ccccc1)Nc1cccc(-c2c(-c3ccccc3)cnc3c(C(F)(F)F)cccc23)c1` returned a melting point of 202 to 205 °C. The value for `O=S(=O)(Nc1cccc2c(Cl)c[nH]c12)c1cccc(Cl)c1` was 180 to 181 °C; that for `COCCN(CCOC)C(=O)c1n[nH]c2c(=O)[nH]c3cc(Cl)ccc3c(=O)c12` was 207 to 209 °C; that for `O=C(NCc1ccn(C2=CC3=C(CC2)CCc2[nH]c(=O)c(=O)n(O)c23)c1)Nc1ccccc1` was above 250 °C. The compound `COC(=O)c1c(C(=O)OC)c(-c2ccc(OC)c(OC)c2)c2c(O)c(OC)c(OC)cc2c1O` showed a melting point of 179 °C. Take `CC(=O)c1ccc(OCc2ccccc2)c(CS(C)(=O)=O)c1`: the melting point lay in the range of 94 to 97 °C. `C=Cc1ccc2c(c1)c1ccccc1n2CC` displayed a melting point of 66 to 67 °C. Next, `CCOC(=O)Cc1nc(-c2ccc(F)cc2)oc1-c1cccs1`: 116 to 117 °C; `CS(=O)(=O)Nc1cc2occ(Nc3ccccc3)c(=O)c2cc1Oc1ccccc1`: 212 to 213 °C; `CCCCC(=O)Oc1cccc(NC(=O)C=C(C)OC)c1`: 84 °C. The value for `COc1cc(C(F)(F)F)nn1-c1ccc(NC(=O)c2snnc2C)cc1` was 159 to 160 °C; that for `CCOC(=O)c1cc(-c2ccc(F)cc2)[nH]n1` was 148 to 150 °C; that for `C[Si](C)(C)OC1(C#N)CCOc2c(Cl)cc(-c3ccccc3)cc21` (configuration not stated) was 99 to 100 °C. Next, `CC(C)(C)NC(=O)NCC#N`: 128 to 132 °C; `COc1cc2nc(N3CCN(C(=O)C4CCc5ccccc5O4)CC3)nc(N)c2cc1OC` (configuration not stated): 165 to 167 °C; `O=C(SCCC(=O)N1c2ccccc2CC1C(=O)O)c1ccccc1` (configuration not stated): 173 to 175 °C. Consider `CC(=CC(=O)O)c1ccc2[nH]cc(-c3cc(C(C)(C)C)cc(C(C)(C)C)c3OCC(F)F)c2c1`, for which the melting point fell in the range of 135 to 145 °C. The value for `CC(=O)NC(C)COC1CCC(c2cc3ccc(OCC4CC4)cc3o2)CC1` (configuration not stated) was 104 to 105 °C; that for `O=Cc1ccc(CC(=O)OCc2ccccc2)cc1` was 54 to 55 °C. Compound `CC(C)N1C(CO)=Cc2ccsc2S1(=O)=O` had a melting point of 67 to 69 °C.

The compound `CCCCS(=O)(=O)N(C)CCN1CC(c2ccc3c(c2)OCO3)C(C(=O)O)C1c1ccc(OC)cc1` (configuration not stated) returned a melting point of 64 to 66 °C.

As to `CCCCN(CCCC)C(=O)c1c(C)n(CCc2ccccc2)c2ccc(O)c(CN3CCCCC3)c12`, the melting point lay within 105 to 107 °C. The value for `N#CCCNC(=O)C1=CC(CF)(CF)Oc2ccc(C(F)(F)C(F)(F)C(F)(F)F)cc21` was 135 to 136 °C; that for `CCCN(CCC)C(=O)C(C)Oc1nc(-c2ccccc2)nc2c1CCCC2` (configuration not stated) was 73 to 74 °C. Next, `O=C(O)CCCOc1ccc(OCc2ccccc2)cc1`: 125 to 126 °C.

As for `Cc1ccc2c(c1)N=C(N1CCN(C)CC1)c1cc(Br)cc3ccn-2c13`, the melting point fell in the range of 153 to 155 °C.

`CCc1nc2c([nH]1)c(=O)n(C)c(=O)n2-c1ccc(Cl)cc1Cl`: the melting point was 274 to 276 °C. In the case of `CS(=O)(=O)N[C@@H](CCCCNC(=O)OCc1ccccc1)C(=O)O`, the melting point was 83.5 to 84 °C. The compound `CCOC(=O)CSc1ccc([N+](=O)[O-])cc1` registered a melting point of 43 to 45 °C. Next, `Oc1cc2c3ccc(O)c(O)c3n(Cc3ccc(C(F)(F)F)cc3)c2cc1O`: 266 to 270 °C.

In the case of `CC(C(=O)O)c1ccc(C2CCCCC2)c2ccccc12` (configuration not stated), the melting point is 150 °C.

Compound `Cc1ccc(-c2nc(Cc3cc4cc(N(OCc5ccccc5)C(N)=O)ccc4o3)c(C)o2)cc1` displayed a melting point of 77 to 80 °C.

For the compound `CN(CCc1ccccc1)C(=O)Cc1ccc(OCc2ccccc2)c(/C=C/C(=O)O)c1`, the melting point was 48 to 51 °C. In turn, `Cc1cnc2c(S(=O)(=O)Cl)cccc2c1` registered a melting point of 158 to 159 °C.

With `CN(C)CCOc1ccc([C@H]2C[C@]3(C)C(=O)CC[C@H]3[C@@H]3CCc4c(ccc(O)c4Cl)[C@H]32)cc1`, the melting point came out at 254 °C. On to `CCc1ccc(S(C)(=O)=O)c(C(=O)c2ccc(F)cc2)c1`, for which the melting point is 145 to 147 °C. Next, `CC1(C)Oc2ccsc2C(N2CC(=O)NCC2=O)C1O` (configuration not stated): 132 to 133 °C; `COC(=O)c1ccc(C=CC(=O)N2CCc3c([nH]c4ccccc34)C2c2ccccc2)cc1` (configuration not stated): 222 °C. Next, `C[C@H](CC(F)(F)F)C(=O)N1C(=O)O[C@@H](c2ccccc2)[C@H]1C`: 72.5 to 73.5 °C; `CCNC1=C(c2ccc(OC)cc2)C(=O)c2cc(OC)ccc21`: 88 to 90 °C; `Cc1nc(-n2cnn(CC(=O)Nc3ccc(Cl)cc3)c2=O)sc1C(=O)NCc1cccnc1`: 255 to 256 °C. Next, `COc1ccc(C(=O)O)c(Oc2ccc(C(F)(F)F)cc2NC(=O)Nc2cc(C(F)(F)F)cc(C(F)(F)F)c2)c1`: 248 °C; `NC(=O)C(CCO)N1CCCC1=O` (configuration not stated): 164 to 165 °C. Consider `c1ccc2c(N3CCNCC3)n[nH]c2c1`, for which the melting point was in the range of 139 to 150 °C.

`CCc1cn2ccccc2c1S(=O)(=O)c1ccc(O)cc1`: the melting point was determined as 204 °C. With `CC1(C)Nc2ccccc2-c2c(N)cnn21`, the melting point was 181 to 183 °C. The value for `CCCc1nc2ccccc2n1Cc1ccc(-c2ccccc2-c2nnn[nH]2)nc1` was 240 to 241 °C. Next, `CCC(C)(C)c1ccc(Oc2ccc(C(=O)c3ccc(Oc4ccc(C(C)(C)CC)cc4C(C)(C)CC)cc3)cc2)c(C(C)(C)CC)c1`: 54 to 56 °C.
